Test results published in patent publication US20250129067A1 (Progentos Therapeutics, Inc., priority 2021, published 2025).
Like-named read-outs stand apart in the source and are kept apart here.

Assays:
PDGFRα = PDGFRα (Homo sapiens (Human), UniProt P16234); assay: PDGFRα kinase enzyme assay (Promega PDGFRα Kinase Enzyme System, ADP-Glo); format: biochemical; details: 150 uM ATP
How it was run: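 Read-out was ADP-Glo: remaining ATP depleted, ADP converted to luminescence and compared with a standard curve.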

[1] = tested on: Oligodendrocyte progenitor cells (OPCs); assay: In vitro OPC differentiation assay, MBP expression (immunocytochemistry); details: 72 hours of treatment; fold change over vehicle
Experimental: Cortices from postnatal day (P) 1-3 rats were dissected and collected into ice cold Hank's Balanced Salt Solution (HBSS). […] Briefly, the cortical cell suspension was centrifuged and washed with buffer (0.5% BSA in PBS) and labeled with Anti-A2B5 MicroBeads (10 μL beads per 1×10^7 cells) for 15 minutes at 4° C. Following the incubation, cells were washed once with BSA buffer to remove unlabeled beads. A2B^5 positive cells were eluted on the column using the AutoMACS® (Miltenyi, as per manufacturer's protocol using “possel-s” program). Eluted cells were further washed twice with OPC growth media. Cell count was performed using Countess III cell counter (ThermoFisher; AMQAX2000) and cells were plated.
A2B5+ OPCs were plated in poly-d-lysine (PDL) coated T75 flask at a density of ˜3 million cells per flask. […] TrypLE was normalized by adding 10 mL growth media and cells were centrifuged at 1400 rpm for 10 minutes. […] The plates were allowed to sit at room temperature for 15 minutes to ensure proper dispersion of cells in a well. The plates were then transferred to the incubator (37° C.; 5% CO2).
Cells were then incubated for 72 hours at 37° C., 5% CO2 before immunostaining for MBP marker expression.
Following 72 hours of treatment, cells were fixed with 4% paraformaldehyde for 15 minutes then washed three times in DPBS. Prior to staining, cells were blocked for 15 minutes in 10% normal goat serum containing 1% BSA and 0.1% Triton X-100 in DPBS. Primary antibody (MBP @ 1:2000; Abcam AB7349) was applied to cells overnight at 4° C. in incubation solution containing 1% normal goat serum, 1% BSA, and 0.1% Triton X-100 in DPBS.
The number of differentiated MBP+ cells was normalized to the total nuclei count and percent differentiated MBP+ cells were reported.

In vivo half-life = details: comparison in words
[2] = tested on: Oligodendrocyte progenitor cells (OPCs); assay: In vitro OPC differentiation assay, GPR17 expression (immunocytochemistry); details: 72 hours, fold change over vehicle; for GPR17 Fold Induction (Over Vehicle; 3 μM): 3 μM (10× concentration, final 0.3 μM); for GPR17 Fold Induction (Over Vehicle; 5 μM): 5 μM (10× concentration, final 0.5 μM)
Experimental: To assess the effects of the PDGFRα inhibitors on OPC differentiation, primary OPCs were cultured and exposed to compounds. The number of newly generated oligodendrocytes was assessed by monitoring GPR17 expression. GPR17 is preferentially expressed in actively differentiating oligodendrocytes, allowing them to be distinguished from precursors and more differentiated oligodendrocytes.
Cortices from postnatal day (P) 1-3 rats were dissected and collected into ice cold Hank's Balanced Salt Solution (HBSS). […] Briefly, the cortical cell suspension was centrifuged and washed with buffer (0.5% BSA in PBS) and labeled with Anti-A2B^5 MicroBeads (10 μL beads per 1×10^7 cells) for 15 minutes at 4° C. Following the incubation, cells were washed once with BSA buffer to remove unlabeled beads. A2B^5 positive cells were eluted on the column using the AutoMACS® (Miltenyi, as per manufacturer's protocol using “Possel-s” program). Eluted cells were further washed twice with OPC growth media. Cell counts were performed using Countess III cell counter (ThermoFisher; AMQAX2000) and cells were plated.
The plates were allowed to sit at room temperature for 15 minutes to ensure proper dispersion of cells in a well. The plates were then transferred to the incubator (37° C.; 5% CO2).
Cells were then incubated for 72 hours at 37° C., 5% CO2 before immunostaining for GPR17 marker expression.
Following 72 hours in culture, cells were fixed with 4% paraformaldehyde for 15 minutes and then washed three times in Dulbecco's phosphate buffered saline (DPBS). Prior to immunostaining, cells were treated with a blocking solution (10% normal goat serum containing 1% BSA and 0.1% Triton® X-100 in DPBS) for 15 minutes at room temperature. Primary antibody (anti-GPR17 at 1:2000; Origene TA811615) was applied to cells overnight at 4° C. in incubation solution containing 1% normal goat serum, 1% BSA, and 0.1% Triton X-100 in DPBS. […] The secondary antibody was applied in incubation solution for 2 hours at room temperature, protected from light.
The number of differentiated GPR17+ cells was normalized to the total nuclei count and percent differentiated GPR17+ cells were reported. Statistical analysis was done using one-way ANOVA with multiple comparisons and post-hoc Tukey test in GraphPad Prism (GraphPad Software).

MBP (myelin) in brain = assay: Remyelination in chronically demyelinated mice (cuprizone model), MBP staining; format: in vivo, C57BL/6 mice; details: for In vivo MBP Increases: MBP staining at day 10 after the first dose, blinded score
Experimental: The ability of newly constructed compounds (described in above Examples) to induce remyelination after demyelination in adult mice was tested using a cuprizone model. Cuprizone administration specifically induces the loss of myelin and oligodendrocytes. Mice were maintained on cuprizone chow to induce demyelination, the cuprizone was discontinues, and the compounds were administered. The animals were sacrificed 10 days after compound administration was initiated and their brains sections and stained for MBP, an important component of myelin.
The chow was stored at 4° C. until use.
Mice were allowed ad libitum access to cuprizone chow. […] The cuprizone diet was discontinued 24 hours before compound treatment was initiated.
To assess oligodendrocyte differentiation, the mice were euthanized and assessed at day 3 after the first dose. To assess MBP expression, the animals were euthanized and assessed at day 10 after the first dose.
For some compounds, MBP intensity, an intensity weighted positive pixel count, was measured using an algorithm developed in Visiopharm Software.

[3] = tested on: GPR17+ cells (newly differentiated oligodendrocytes); assay: In vivo OPC differentiation, GPR17+ cells in brain
[4] = tested on: NG2+ cells (OPCs) in brain; assay: OPC population recovery after administration of PDGFRα inhibitor, NG2 staining; format: in vivo, C57BL/6 mice; details: mice
Experimental: OPCs first appear during embryonic organogenesis and continue to exist in adult brain (in both gray and white matter), maintaining their population through self-renewal. To assess whether PDGFRα inhibitors described herein have an effect on the maintenance of the OPC population when administered in vivo, two different PDGFRα inhibitors were tested, each having a different in vivo half-life. Then, the expression of NG2 (marker for OPCs) was assessed in the brains of the treated mice at various time points after treatment as described in more detail below.
The mice received a single administration of either Compound 6 (10 mg/kg) or Compound 78 (5 mg/kg). Control animals received a vehicle control. Then, at days 3, 6, 9, or 12 days after dosing, some of the animals from each of the treatment groups were sacrificed and their brains were harvested for analysis.
The floating sections were incubated with a rabbit anti-NG2 antibody (EMD Millipore, catalog no. AB5320) (i.e., the primary antibody) diluted in blocking solution (to a concentration of 1:1000) overnight at room temperature on a shaker.
NG2 staining was assessed by an observer blinded to the treatment condition and given a score from 1 to 5, with 5 representing the level of OPC population observed in naïve animals that had not received an exemplar PDGFRα inhibitor.

[5] = tested on: GPR17+ cells in brain tissue; assay: Differentiation of newly generated OPCs after a second dose, GPR17+ cells; format: in vivo, C57BL/6 mice
Experimental: Further to the results provided above in Example 244, it was assessed whether OPCs that are newly generated (i.e., through self-renewal) after PDGFRα inhibitor administration have the ability to differentiate into mature oligodendrocytes. As described below, testing this made use of the transient characteristics of GPR17 expression. […] Therefore, the effects of a first and second dose of compound can be distinguished from one another. In these experiments, mice received a first dose of either vehicle or compound, which differentiated the OPCs and reduced the size of the OPC population. Five, fourteen, or twenty-one days later, mice received a second dose of compound and the response to the second dose was measured. These intervals tested whether newly generated OPCs could respond to compound and differentiate into oligodendrocytes. It also tested what the minimum interval was between two doses to get a nearly full response from the second dose.
Mice were treated with a vehicle control and/or Compound 78. The specific treatment groups were as follows: (1) single dose of the vehicle control on day 1; (2) a dose of the vehicle control on day 0 and a dose of compound 78 on day 5; (3) a first dose of compound 78 on day 0 and a second dose of compound 78 on day 5; (4) a first dose of compound 78 on day 0 and a second dose of compound 78 on day 14; and (5) a first dose of compound 78 on day 0 and a second dose of compound 78 on day 21. As described in the above examples, the animals were sacrificed three days after the last dose and their brains were harvested for analysis. GPR17+ expression in the brain tissue was assessed as described herein. Then, the mice were sacrificed 3 days after the second dose and the brains were harvested for analysis.
Histology was performed as described in Example 244 using reagents described in Table xx (below).
Images obtained from the histology preparations were analyzed using a custom protocol implemented with Visiopharm software to count GPR17+ cells.

[6] = 20 ng purified PDGFRα, Poly (Glu4Tyr1) substrate, two hours, 11-point dose response, read-out: IC50 Values on PDGFRα Kinase Inhibition
[7] = 11-point dose response, 10,000 nM to 0.169 nM, BLQ = below limit of quantitation, read-out: IC50 Values on PDGFRα Kinase Inhibition, IC50
[8] = Mus musculus, po, 24 h, read-out: GPR17 Fold Induction (Over Vehicle)

Sequence of PDGFRα (P16234 24-1089): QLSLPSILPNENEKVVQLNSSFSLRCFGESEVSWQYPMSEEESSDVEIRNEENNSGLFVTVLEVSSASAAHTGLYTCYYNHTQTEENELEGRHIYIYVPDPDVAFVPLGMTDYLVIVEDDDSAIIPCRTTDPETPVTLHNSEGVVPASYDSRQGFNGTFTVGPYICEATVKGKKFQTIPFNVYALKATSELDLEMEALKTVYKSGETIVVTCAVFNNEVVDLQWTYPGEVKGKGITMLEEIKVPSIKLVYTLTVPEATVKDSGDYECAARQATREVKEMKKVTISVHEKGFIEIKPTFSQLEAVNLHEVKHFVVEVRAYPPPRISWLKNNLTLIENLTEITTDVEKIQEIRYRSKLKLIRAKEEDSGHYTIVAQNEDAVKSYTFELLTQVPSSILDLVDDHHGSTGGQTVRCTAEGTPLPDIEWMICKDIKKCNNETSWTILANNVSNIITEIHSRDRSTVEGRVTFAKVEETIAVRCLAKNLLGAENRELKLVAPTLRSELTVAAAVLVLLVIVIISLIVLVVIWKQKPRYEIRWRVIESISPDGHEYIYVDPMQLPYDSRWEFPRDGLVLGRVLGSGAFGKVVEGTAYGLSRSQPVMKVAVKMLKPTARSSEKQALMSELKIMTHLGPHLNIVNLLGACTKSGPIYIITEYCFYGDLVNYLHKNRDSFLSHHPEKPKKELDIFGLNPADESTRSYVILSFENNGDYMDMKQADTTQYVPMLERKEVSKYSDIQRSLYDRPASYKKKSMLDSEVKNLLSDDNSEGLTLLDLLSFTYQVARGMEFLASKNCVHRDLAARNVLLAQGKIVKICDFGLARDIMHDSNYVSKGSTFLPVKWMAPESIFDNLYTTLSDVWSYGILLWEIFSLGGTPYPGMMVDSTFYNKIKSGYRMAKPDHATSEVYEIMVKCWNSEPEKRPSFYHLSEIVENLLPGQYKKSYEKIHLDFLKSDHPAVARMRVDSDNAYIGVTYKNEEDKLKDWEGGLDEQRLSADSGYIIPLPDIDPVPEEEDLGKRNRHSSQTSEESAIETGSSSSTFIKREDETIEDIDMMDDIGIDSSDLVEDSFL

| Compound | IC50 (PDGFRα; [7]) [nM] | MBP Fold Induction (Over vehicle) [1] | GPR17 Fold Induction (Over Vehicle; 3 μM) [2] | In vivo MBP Increases (MBP (myelin) in brain) | fold induction at 3 mg/kg [3, 8] | also measured |
| --- | --- | --- | --- | --- | --- | --- |
| Cn1cc(-c2ccc3c(N4CCN(c5ncc(Cc6ccccc6)cn5)CC4)cnn3c2)cn1 [Compound 6, 3-[4-(5-benzylpyrimidin-2-yl)piperazin-1-yl]-6-(1-methyl-1H-pyrazol-4-yl)pyrazolo[1,5-a]pyridine] | 407 | 2.95 | 4.47 | +++++ (5 representing the level of myelination observed in naïve, healthy animals that had not undergone demyelination) |  | IC50 (PDGFRα; [6]): < 1000 nM; Half-life (In vivo half-life): longer half-life; GPR17 Fold Induction (Over Vehicle; 5 μM) [2]: 4.07; MBP expression within the different regions of the brain (MBP (myelin) in brain; single dose, versus vehicle control): significant increase in MBP expression; fold induction at 150 mg/kg [3, 8]: 18.7 |
| C[C@@H](OC(=O)N1CCN(c2cnn3cc(-c4cnn(C)c4)ccc23)CC1)c1ccc(Cl)cc1 [Compound 78, (1R)-1-(4-Chlorophenyl)ethyl 4-[6-(1-methyl-1H-pyrazol-4-yl)pyrazolo[1,5-a]pyridin-3-yl]piperazine-1-carboxylate] | < 0.17 | 10.93 | 13.71 |  | 14.9 | IC50 (PDGFRα; [6]): < 1000 nM; Time post administration until number of OPCs in the brain was comparable to control animals ([4]; single administration 5 mg/kg): about 9 days; OPC population recovery after 6 days ([4]; single administration, Compound 78 compared to Compound 6): greater recovery; GPR17+ cells within the brain tissue ([5]; Group 2: vehicle on day 0, first dose of compound on day 5, sacrificed three days after the last dose): significant numbers of GPR17+ cells; GPR17+ cells after second dose ([5]; Group 3: two doses at a dosing interval of 5 days, compared to dosing intervals of 14 days and 21 days): significantly fewer GPR17+ cells; Dosing interval necessary to see any effect on oligodendrocyte generation from the second administration ([5]; mice, two separate doses): greater than 5 days; Half-life (In vivo half-life): shorter half-life than Compound 6 |
| Cn1cc(-c2cc3c(N4CCN(c5ncc([C@@](C)(N)c6ccc(F)cc6)cn5)CC4)ncnn3c2)cn1 [Avapritinib, avapritinib, reference compound] |  |  |  | ++++ (given a score from 1 to 5) |  |  |
| Cn1cc(-c2ccc3c(N4CCN(c5ncc(Cc6ccc(F)cc6)cn5)CC4)cnn3c2)cn1 [Compound 66, 3-{4-[5-(4-fluorobenzyl)pyrimidin-2-yl]piperazin-1-yl}-6-(1-methyl-1H-pyrazol-4-yl)pyrazolo[1,5-a]pyridine] | 693 | 26.50 | 5.07 |  | 10.4 |  |
| C[C@@H](OC(=O)N1CCN(c2cnn3cc(-c4cnn(C)c4)ncc23)CC1)c1ccccc1 [Compound 49, (R)-1-phenylethyl 4-(6-(1-methyl-1H-pyrazol-4-yl)pyrazolo[1,5-a]pyrazin-3-yl)piperazine-1-carboxylate] | 59.5 | 2.45 | 9.99 |  |  | GPR17 Fold Induction (Over Vehicle; 5 μM) [2]: 4.42; fold induction at 3.3 mg/kg [3, 8]: 1.68 |
| CN1CCC[C@@H]1CCO[C@](C)(c1ccccc1)c1ccc(Cl)cc1 [Clemastine, clemastine, reference compound] |  |  |  | + (given a score from 1 to 5) |  | In vivo GPR17+ cells, GPR17 Fold Induction (Over Vehicle) ([3]; adult female C57BL/6 mice, PO or IP, treatment period 1-3 days, entire brain, fold change over vehicle treated animals): 1.55 |
| Cn1cc(-c2ccc3c(N4CCN(c5ncc(C(O)C6CCCCC6)cn5)CC4)cnn3c2)cn1 (stereo not drawn) [Compound 61, cyclohexyl(2-{4-[6-(1-methyl-1H-pyrazol-4-yl)pyrazolo[1,5-a]pyridin-3-yl]piperazin-1-yl}pyrimidin-5-yl)methanol] | 5.26 | 9.88 | 10.09 |  | 2.36 |  |
| CC1CC(OC(=O)N2CCN(c3cnn4cc(-c5cnn(C)c5)ccc34)CC2)C1 (stereo not drawn) [Compound 309, 3 methylcyclobutyl 4-[6-(1-methyl-1H-pyrazol-4-yl)pyrazolo[1,5-a]pyridin-3-yl]piperazine-1-carboxylate] | 824 | 5.13 | 6.67 |  |  | fold induction at 10 mg/kg [3, 8]: 1.2 |
| OCCn1cc(-c2ccc3c(N4CCN(c5ncc(Cc6ccccc6)cn5)CC4)cnn3c2)cn1 [Compound 55, 2-(4-{3-[4-(5-benzylpyrimidin-2-yl)piperazin-1-yl]pyrazolo[1,5-a]pyridin-6-yl}-1H-pyrazol-1-yl)ethanol] | 120 | 5.64 | 8.97 |  | 6.43 |  |
| C[C@H](OC(=O)N1CCN(c2cnn3cc(-c4cnn(C)c4)ccc23)CC1)c1ccc(Cl)cc1 [Compound 271, (1S)-1-(4-chlorophenyl)ethyl 4-[6-(1-methyl-1H-pyrazol-4-yl)pyrazolo[1,5-a]pyridin-3-yl]piperazine-1-carboxylate] | 1490 | 2.21 | 6.67 |  | 0.83 |  |
